This test deals with adult human CD8 T cells. In words: Adult human PBMC activation with anti-CD3/CD28 beads, T cell phenotype by flow cytometry. It is filed as cell-based. To be noted: adult PBMCs, day 9, vs DMSO. As for the experimental part:
FIG. 7: MPC inhibition during the activation and culture of adult human T cells induces a memory phenotype. (A) Experimental design. PBMCs were isolated from adult healthy volunteers and activated with anti-CD3/CD28 beads in the presence of DMSO or UK5099 (25 μM). Beads were removed at day 5 and T cell phenotype was analysed at day 9. (B) Percentage of CD8 T cells expressing the memory marker CD62L. (C) The mean fluorescent intensity of CD62L in the respective positive population. (D) Percentage of CD8 T cells expressing markers that allows their identification as stem cell memory T cells (TSCM). (E-F) Mitochonrial mass (identified by MitoGreen staining, E) and mitochondrial membrane potential (TMRM, F), measured by flow cytometry and expressed as fold change as compared to DMSO. (G) Mitochondrial membrane potential normalized for the mitochondrial mass, expressed as the ratio of […], fold change as compared to DMSO. Pooled data from 2 independant experiments. ns: non-significant, *p<0.05, **[…], ***p<0.001. Data represents mean±s.e.m.
Heparinised blood was diluted with PBS and pipetted on top of Ficoll-paque (LymphoPrep). After centrifugation at 1800 rpm for 20 minutes at room temperature, the layer of cells at the intersection, containing the PBMCs was removed, washed and resuspended at 5×10^5 cells/ml of RPMI medium containing 8% human serum (AB serum), antibiotics, 2 mM L-Glutamine, 1% non-essential amino acids, 1 mM sodium pyruvate and 50 μM β-mercaptoethanol (all Gibco). Cells were activated with Human T-activator CD3/CD28 Dynabeads at a 1 bead/cell ratio with 150 IU/ml human recombinant IL2 and DMSO or 25 μM UK5099. Throughout the culture, cells were regularly split when necessary and beads were removed at day 5. At day 9, a fraction of the cells was stained with antibodies for flow cytometry analysis or for mitochondrial analysis.
On the technique in general: A flow cytometer gives signals particle by particle.

Regarding `CC(C)(O)CNc1nc(Nc2ccnc(C(F)(F)F)c2)nc(-c2cccc(C(F)(F)F)n2)n1` [AG221], the “mean fluorescent intensity of the CD62L signal in the CD62L-positive cells” value was “increased”. Further, the “population of CD8 T cells positive for CD62L” value (UK5099 25 μM) was “further induce”.

(Values after patent publication US20230302131A1, “MPC INHIBITION FOR PRODUCING T-CELLS WITH A MEMORY PHENOTYPE” (UNIVERSITÉ DE LAUSANNE, priority 2020, published 2023).)
